Experimental data reported in publication PMC9029893 (International Journal of Molecular Sciences, 2022).

Assays:
[1] = tested on: human plasma (platelet poor plasma); experiment: Basic coagulation tests: PT, INR, APTT, TT; assay type: biochemical; conditions: for TT: thrombin 3.0 UNIH/mL
Protocol: The blood was collected into vacuum tubes stuffed with 3.2% buffered sodium citrate. Platelet poor plasma (PPP) was obtained by centrifugation at 3000× g for 10 min at room temperature using a Micro 22R centrifuge (Hettich Zentrifugen, Tuttlingen, Germany). The obtained PPP was stored in small aliquots for up to one month at –30° C. Before each experiment, PPP was restored at 37 °C for 15 min. Once thawed, the PPP was not frozen again nor used for retesting.
The effects of biguanidines (1–5) on the basic coagulation parameters (PT, INR, APTT, and TT) were carried out using a CoagChrom-3003 coagulometer (Bio-Ksel, Grudziądz, Poland), according to the routine laboratory diagnostic procedure. The studies were performed in multiplicate (n = 4–7). The control samples containing distilled water and methanol (1:1) were also included.
The results are presented as mean ± standard deviation (SD). The methods were validated, and coefficients of variability for all experiments were calculated (PT: CV = 10.25%, APTT: CV = 8.55%, TT: CV = 4.87%). The reference values for each test are as follows: PT: 9.7–14.6 s; APTT: 26.7–40.0 s; TT: 14.0–18.0 s for 3.0 UNIH/mL of thrombin.

[2] = tested on: clot formation and fibrinolysis in human citrate plasma; experiment: Clot formation and fibrinolysis test (CL-test); assay type: biochemical
Protocol: The effects of the […] on overall hemostasis potential by means of clot formation and fibrinolysis test (CL-test) were further tested based on the continuous measurement of the changes in optical transmittance over time, as described by Kostka et al. and Sikora et al.. These experiments were conducted using 470 µL of three-fold diluted human citrate plasma, 10 µL of the tested compounds, and 10 µL t-PA (final concentration in a sample 220 ng/mL). The clot formation was triggered by thrombin (10 µL, final concentration 0.5 IU/mL). The clot formation and lysis curves were determined at a wavelength of 405 nm with a spectrophotometer (Cecil CE 2021; London, UK) with circulating thermostated water (37 °C) and a Model 300 Electronic Stirrer (Rank Brothers Ltd., Cambridge, UK). The experiments were conducted in multiplicate (n = 5–7), and the results are presented as mean ± SD.
The received graphs were analyzed using dedicated software to determine the kinetic parameters of clot formation, stabilization, and fibrinolysis. The following parameters of clot formation were determined: Tt—thrombin time (s), Fmax—maximum clotting (%T), Tf—plasma clotting time (s), Fvo—initial plasma clotting velocity (%T/min), Sr—area under the clot formation curve (%Txmin). The parameters of the clot stabilization phase comprised Tc—clot stabilization time (s), Sc—area under the curve of stable clot formation (%Txmin). The parameters of fibrinolysis comprised Lmax—maximum lysis (%T), Tl—fibrinolysis time (s), Lvo—initial clot fibrinolysis velocity (%T/min), Sf—area under the fibrinolysis curve (%Txmin). Additionally, the overall potential of clot formation and fibrinolysis (CLAUC, (%Txmin)) and total time of the process of clot formation and fibrinolysis (T, (s)) were also estimated.

[3] = tested on: tissue plasminogen activator (t-PA) release from HUVEC; experiment: t-PA release from HUVEC (ELISA); assay type: cell-based, human; conditions: 24 h, HUVEC supernatants
Protocol: The influence on tissue plasminogen activator release from HUVECs was assessed using an ELISA kit (Abcam, Cambridge, UK). HUVECs seeded at a density of 10,000 per well on 96-well plates were co-incubated with compounds 1–5 at the concentrations of 0.3 and 1.0 mM for an additional 24 h (37 °C, 5% CO2). The cell supernatants were discarded into Eppendorf tubes and preserved at −20° C until analysis. Before the tests, the samples were thawed at room temperature for 15 min, and diluted 2.5-fold with diluent in Elisa kit. The measurements of t-PA concentrations in cell supernatants were conducted according to the manufacturer’s protocol using 3,3’,5,5’-tetramethylbenzidine (TMB) as a chromogenic substrate. The concentration of t-PA in HUVEC supernatants was determined using a calibration curve (R^2 = 0.9936). The results are presented as mean ± SD, n = 6. The CV for the applied method was 7.21%.

CN(C)C(=N)N=C(N)NS(=O)(=O)C1CCCCC1 [Compound 3] was tested, and the APTT ([1]; 0.006 mM) was 32.97 ± 5.06 s, the INR ([1]; 0.006 mM) was 1.00 ± 0.11 and the PT ([1]; 0.006 mM) was 12.52 ± 1.42 s. It also gave a TT ([1]; 0.006 mM) of 13.18 ± 1.97 s, an APTT ([1]; 0.06 mM) of 34.50 ± 4.52 s and an INR ([1]; 0.06 mM) of 1.04 ± 0.15. It also gave a PT ([1]; 0.06 mM) of 13.02 ± 1.90 s, a TT ([1]; 0.06 mM) of 13.14 ± 2.01 s and an APTT ([1]; 0.3 mM) of 33.00 ± 5.70 s. It also gave an INR ([1]; 0.3 mM) of 1.09 ± 0.11, a PT ([1]; 0.3 mM) of 13.60 ± 1.39 s and a TT ([1]; 0.3 mM) of 13.46 ± 1.97 s. The APTT ([1]; 0.6 mM) was 33.17 ± 5.34 s, the INR ([1]; 0.6 mM) was 1.09 ± 0.18 and the PT ([1]; 0.6 mM) was 13.66 ± 2.27 s. For the same compound, the TT ([1]; 0.6 mM) was 13.50 ± 1.74 s, the APTT ([1]; 1.5 mM) was 32.49 ± 7.50 s and the INR ([1]; 1.5 mM) was 1.06 ± 0.18. For the same compound, the PT ([1]; 1.5 mM) was 13.30 ± 2.30 s, the TT ([1]; 1.5 mM) was 14.06 ± 1.60 s and the “Fmax—maximum clotting” value ([2]; 0.06 mM) was 65.40 ± 9.39 %T. The “Fvo—initial plasma clotting velocity” value ([2]; 0.06 mM) was 208.17 ± 44.80 %T/min, the “Lmax—maximum lysis” value ([2]; 0.06 mM) was 71.38 ± 8.36 %T and the “Lvo—initial clot fibrinolysis velocity” value ([2]; 0.06 mM) was 20.38 ± 5.24 %T/min. The “Sc—area under the curve of a stable clot formation” value (shortened to “Sc—area under the curve”) ([2]; 0.06 mM) was 314.15 ± 49.14 %T x min, the “Sf—area under the clot formation curve” value ([2]; 0.06 mM) was 48.52 ± 10.81 %T x min and the “Sl (area under the fibrinolysis curve)” value ([2]; 0.06 mM) was 156.16 ± 30.07 %T x min. For the same compound, the “S—overall potential of clot formation and fibrinolysis (CLAUC)” value (shortened to “S—overall potential”) ([2]; 0.06 mM) was 521.91 ± 66.81 %T x min, the “Tc—clot stabilization time” value ([2]; 0.06 mM) was 279.50 ± 46.51 s and the “Tf—plasma clotting time” value ([2]; 0.06 mM) was 57.45 ± 8.71 s. For the same compound, the “Tl—fibrinolysis time” value ([2]; 0.06 mM) was 235.33 ± 48.33 s, the “Tt—thrombin time” value ([2]; 0.06 mM) was 16.68 ± 3.26 s and the “T—total time of the process of clot formation and fibrinolysis” value (shortened to “T—total time”) ([2]; 0.06 mM) was 588.97 ± 87.54 s. For the same compound, the “Fmax—maximum clotting” value ([2]; 0.3 mM) was 68.78 ± 4.04 %T, the “Fvo—initial plasma clotting velocity” value ([2]; 0.3 mM) was 214.17 ± 32.05 %T/min and the “Lmax—maximum lysis” value ([2]; 0.3 mM) was 70.15 ± 3.87 %T. For the same compound, the “Lvo—initial clot fibrinolysis velocity” value ([2]; 0.3 mM) was 22.88 ± 8.98 %T/min, the “Sc—area under the curve” value ([2]; 0.3 mM) was 335.21 ± 50.51 %T x min and the “Sf—area under the clot formation curve” value ([2]; 0.3 mM) was 44.41 ± 6.00 %T x min. The “Sl (area under the fibrinolysis curve)” value ([2]; 0.3 mM) was 142.20 ± 37.46 %T x min, the “S—overall potential” value ([2]; 0.3 mM) was 521.82 ± 88.83 %T x min and the “Tc—clot stabilization time” value ([2]; 0.3 mM) was 299.50 ± 38.60 s. For the same compound, the “Tf—plasma clotting time” value ([2]; 0.3 mM) was 55.13 ± 7.55 s, the “Tl—fibrinolysis time” value ([2]; 0.3 mM) was 229.17 ± 48.85 s and the “Tt—thrombin time” value ([2]; 0.3 mM) was 16.23 ± 4.22 s. For the same compound, the “T—total time” value ([2]; 0.3 mM) was 600.03 ± 91.80 s, the “Fmax—maximum clotting” value ([2]; 0.6 mM) was 66.60 ± 4.00 %T and the “Fvo—initial plasma clotting velocity” value ([2]; 0.6 mM) was 211.50 ± 22.76 %T/min. The “Lmax—maximum lysis” value ([2]; 0.6 mM) was 67.55 ± 4.50 %T, the “Lvo—initial clot fibrinolysis velocity” value ([2]; 0.6 mM) was 23.53 ± 6.67 %T/min and the “Sc—area under the curve” value ([2]; 0.6 mM) was 323.11 ± 42.53 %T x min. For the same compound, the “Sf—area under the clot formation curve” value ([2]; 0.6 mM) was 42.40 ± 3.94 %T x min, the “Sl (area under the fibrinolysis curve)” value ([2]; 0.6 mM) was 137.48 ± 23.47 %T x min and the “S—overall potential” value ([2]; 0.6 mM) was 502.99 ± 64.69 %T x min. The “Tc—clot stabilization time” value ([2]; 0.6 mM) was 299.50 ± 40.90 s, the “Tf—plasma clotting time” value ([2]; 0.6 mM) was 54.73 ± 5.88 s and the “Tl—fibrinolysis time” value ([2]; 0.6 mM) was 234.83 ± 42.86 s. The “Tt—thrombin time” value ([2]; 0.6 mM) was 17.17 ± 3.17 s, the “T—total time” value ([2]; 0.6 mM) was 606.23 ± 87.70 s and the “Fmax—maximum clotting” value ([2]; 1.5 mM) was 63.60 ± 5.36 %T. The “Fvo—initial plasma clotting velocity” value ([2]; 1.5 mM) was 199.50 ± 18.07 %T/min, the “Lmax—maximum lysis” value ([2]; 1.5 mM) was 63.92 ± 5.38 %T and the “Lvo—initial clot fibrinolysis velocity” value ([2]; 1.5 mM) was 23.50 ± 13.77 %T/min. The “Sc—area under the curve” value ([2]; 1.5 mM) was 368.60 ± 84.14 %T x min, the “Sf—area under the clot formation curve” value ([2]; 1.5 mM) was 47.68 ± 7.07 %T x min and the “Sl (area under the fibrinolysis curve)” value ([2]; 1.5 mM) was 143.17 ± 38.79 %T x min. For the same compound, the “S—overall potential” value ([2]; 1.5 mM) was 559.45 ± 127.25 %T x min, the “Tc—clot stabilization time” value ([2]; 1.5 mM) was 355.50 ± 66.77 s and the “Tf—plasma clotting time” value ([2]; 1.5 mM) was 62.35 ± 6.00 s. The “Tl—fibrinolysis time” value ([2]; 1.5 mM) was 253.17 ± 62.51 s, the “Tt—thrombin time” value ([2]; 1.5 mM) was 18.15 ± 4.30 s and the “T—total time” value ([2]; 1.5 mM) was 689.17 ± 134.48 s. For the same compound, the “Released t-PA” value ([3]; 0.3 mM) was 1550.9 ± 135.2 pg/mL and the “Released t-PA” value ([3]; 1.0 mM) was 1267.1 ± 350.6 pg/mL.
